Assay results as given in US12098433B2 (priority 2018, dated 2024).
“Also recorded” adds a separate entry of the source. Read-outs that look alike come from different tables or passages of the source.

What was measured:
[1] = system: atzR (via atzABC conversion of atrazine to cyanuric acid); type: biochemical, E. coli extracts; Pseudomonas ADP-1 pathway; conditions: for time at which ON is distinguished from OFF (kinetic divergence): 100 μM atrazine; for sensor response to triazines (specificity): FIG. 19C
[2] = system: atzR (via atzABC conversion of atrazine to cyanuric acid); experiment: Colorimetric atrazine sensor (C23O reporter), freeze-dried reactions; type: biochemical, E. coli extracts; Pseudomonas ADP-1 pathway
[3] = system: unregulated cell-free protein synthesis reaction (cell-free transcription and translation); type: biochemical, E. coli
[4] = system: AtzR transcription factor; experiment: Cell-free cyanuric acid sensor: AtzR-regulated sfGFP reporter; type: biochemical, Pseudomonas sp. ADP-1; conditions: for fold-induction of sfGFP: 100 μM
[5] = system: AtzR transcription factor; experiment: Cell-free cyanuric acid sensor with colorimetric catechol 2,3-dioxygenase reporter; type: biochemical, Pseudomonas sp. ADP-1; conditions: 600 μM CYA in ON state; tubes with catechol at 30° C.
Description: FIG. 18. Proof-of-concept for field-deployable cyanuric acid sensing using a cell-free biosensor. (a) Optimized cell-free reactions are prepared without cyanuric acid (CYA), freeze-dried, and then rehydrated with unfiltered environmental water samples. (b) CYA in environmental water samples can be detected from freeze-dried cell-free reactions. […] (c) Time course comparisons of the OFF state from panel B, for the unfiltered environmental water samples that were not spiked with CYA. Pool water can be distinguished against lake water in less than one hour. […] CYA was added at a concentration of 600 μM in the ON state to a fresh cell-free reaction incubated at 30° C. and monitored for 90 minutes. […] Fluorescence in b and c is reported standardized to mean equivalent fluorescence (MEF) of fluorescein isothiocyanate based on a previously developed standard.
Finally, we aimed to validate if a visible output signal for the sensor could be generated without a plate reader to enable equipment-free detection of CYA from environmental samples. […] Because fluorescence of sfGFP is difficult to detect by the unaided eye, particularly in the early stages of the reaction, we replaced the coding sequence of the reporter plasmid instead with the enzyme catechol 2,3-dioxygenase (C23DO). […]

[6] = system: NarX / NarL two-component system
[7] = system: NarX / NarL two-component system; conditions: colorimetric C32O reporter

CCNc1nc(Cl)nc(NC(C)C)n1 [atrazine]
calculated limit of detection above background [1]: approximately 20 μM | time at which ON is distinguished from OFF (kinetic divergence) ([1]; optimized sensor): approximately one hour | time at which ON is distinguished from OFF (kinetic divergence) ([1]; optimized sensor, listed as Atrazine): within one hour | sensor response to triazines (specificity) [1]: capable of detecting | detection by sensor ([1]; doped at 100 μM, all enriched extracts plus blank extract): could detect | overall limit of detection (figure legend) ([1]; optimized sensor, dose-response curve FIG. 22E): around 20 | EC50 ([1]; read-out: half-maximal signal): ~66 µM | reactions changing color ([2]; 100 nM atrazine, three replicates, four-hour limit): one of the three reactions | limit of detection for the enzymatic reporter ([2]; freeze-dried, all three replicates turned on within four-hour limit): 1 | poisoning / inhibitory effect on cell-free protein synthesis (sfGFP) ([3]; 100 μM): Minimal poisoning

O=c1[nH]c(=O)[nH]c(=O)[nH]1 [cyanuric acid]
fold-induction of sfGFP ([4]; optimal 1 nM AtzR plasmid and 10 nM reporter plasmid, 4-hour incubation): > 12 fold | fold-induction of sfGFP ([4]; reporter based on Promoter P2 (E. coli consensus −10 site), promoter screen): ~8 fold | linear operating range of dose-response ([4]; optimal plasmid concentrations): 0 to 100 µM | time to production of yellow color (reporter activation) [5]: ≤ 1 h | sensor response to triazines (specificity) [1]: capable of detecting

Nc1nc(N)nc(N)n1 [melamine]
sensor response to triazines (specificity) [1]: unreactive | poisoning / inhibitory effect on cell-free protein synthesis (sfGFP) ([3]; 100 μM): Minimal poisoning

O=[N+]([O-])O [nitrate]
sensor activation ([6]; 1 mM nitrate, absence of supplemental NarX): activated | detection by sensor ([6]; 1 mM nitrate, certain ratios of NarX- and NarL-enriched extracts): robust detection | sensitivity of cell-free system ([6]; optimal conditions, sfGFP reporter): more sensitive than the environmental limit | lowest concentration detected, visible by naked eye [7]: 10 µM

CC(C)Nc1nc(Cl)nc(NC(C)C)n1 [propazine]
sensor response to triazines (specificity) [1]: weak activation; also recorded: capable of detecting | poisoning / inhibitory effect on cell-free protein synthesis (sfGFP) [3]: Minimal poisoning
